Values joined by “and” are separate entries in the source; they are usually repeats but may differ in a detail not shown here. Equal entries are not always repeated.
What was measured:
HCT-116 cells = experiment: Cell cycle analysis by DNA flow cytometry, HCT-116; type: cell-based, human; details: HCT116, 24 h, compound at its IC50 (supplement: 10 μM); for %Pre-G1: control 4.52; for %G2-M: control 18.93; for %S: control 31.56; for %G0-G1: control 49.51
Experimental: It is clearly known that generally the cytotoxic agents exert their anti-proliferative effect via cell cycle arrest at a specific phase. In the present study, due to the excellent in-vitro anti-proliferative activity of conjugates 1 and 11 against both HCT-116 and MCF-7 cancer cell lines as well as their excellent VEGFR-2 inhibitory activities, cell cycle analysis have been carried out for both compounds. […]
2.3. Cell cycle analysis.
HCT-116 and MCF-7 cells were seeded at concentrations of 1 x 10^5 cells per well in a 6-well plate, and then incubated for 24 h. The cells were treated for 24 h with vehicles (0.1 percent DMSO) or 10 μM of compounds 1 or 11. Using ice-cold, 70 percent ethanol at 4 °C, cells were harvested and fixed for 12 h. Ethanol was removed, and the cells were washed by cold PBS.
Then, the cells were incubated in 0.5 mL of PBS containing 1 mg/mL Ranse for 30 min at 37 °C.
In the dark, the cells were stained with propidium iodide for 30 min. Flow cytometer was then used to detect contents of DNA [63]. […]

VEGFR-2 Protein Kinase = molecular target: T1, VEGFR-2 Protein Kinase (Homo sapiens, UniProt P35968); experiment: VEGFR-2 inhibitory activity (HTScan VEGF Receptor-2 Kinase Assay Kit, ELISA); type: biochemical; details: mean of three individual experiments
T1 construct: It includes active VEGFR-2 kinase; purchased HTScan VEGF Receptor-2 Kinase Assay Kit
Experimental: 2.2. VEGFR-2 Inhibitory activity
VEGFR-2 ELISA (Enzyme-Linked Immunosorbent Assay) kits (HTScan® VEGF Receptor-2 […]
phospho-tyrosine antibody) for detection of the phosphorylated form of the substrate peptide).
On a 96-well plate, a particular VEGFR-2 antibody was seeded and 100 μL of the normal solution or the tested compound tested was applied, incubated at room temperature for 2.5 h and washed. Then, 100 μL of the prepared biotin antibody was added, incubated for an additional 1 h at room temperature and washed. Following, 100 μL of streptavidin solution was added at room temperature, incubated for 45 minutes and then, 100 μL of TMB Substrate solution was applied and incubated at room temperature for 30 minutes. Finally, 50 μL stop solution was added and the absorption was measured at 450 nm instantly. The standard curve, the X -axis concentrations, and the Y-axis absorbance were drawn. […]

Bcl-2 [1] = experiment: Western blot of Bcl-2 expression in MCF-7; type: cell-based, human; details: MCF-7, Western blot, normalised to β-actin
Excerpt: (§1) It is well known that the anti-apoptotic proteins Bcl-2 and Bcl-xL are mainly overexpressed in various types of cancer, causing survival of cancer cells and/or drug resistance. Therefore, inhibition of these proteins expression leads to cancer cell death and has been used as a strategy for anticancer drug development. In this study, the impact of compounds 1 and 11 on Bcl-2 and Bcl-xL expression in HCT-116 and MCF-7 cancer cell lines was examined using Western blot analysis and all the data were normalised to β-actin (Figure 9).
(§2) 2.5. Impact of compounds 1 and 11 on the level of anti-apoptotic markers (Bcl-2, and Bcl-xL).
(§3) Gel electrophoresis and immuno-blot analysis of proteins (Western Blot) method was used to examine the effect of compounds 1 and 11 on the level of anti-apoptotic markers (Bcl-2, and Bcl-xL). […]
(§4) The cells were then immediately frozen at −20 °C for 1 h for further lysis and collected by cell scraper and sonicated 2×10s. Total protein concentrations were determined colorimetrically using Bradford method before proceeding to the western blotting. […] Briefly, the membranes were incubated for 1 min with a mixture of equal volumes from ECL solution A and ECL solution B. The chemiluminescent signals were captured using a CCD camera-based imager (Chemi Doc imager, Biorad, USA), and the band intensities were then measured with β-actin as an internal reference protein. […]

Bcl-2 [2] = experiment: Western blot of Bcl-2 expression in HCT-116; type: cell-based, human; details: HCT-116, Western blot, normalised to β-actin
Excerpt: as §1, §2, §3, §4

T1 sequence (P35968 20-1356): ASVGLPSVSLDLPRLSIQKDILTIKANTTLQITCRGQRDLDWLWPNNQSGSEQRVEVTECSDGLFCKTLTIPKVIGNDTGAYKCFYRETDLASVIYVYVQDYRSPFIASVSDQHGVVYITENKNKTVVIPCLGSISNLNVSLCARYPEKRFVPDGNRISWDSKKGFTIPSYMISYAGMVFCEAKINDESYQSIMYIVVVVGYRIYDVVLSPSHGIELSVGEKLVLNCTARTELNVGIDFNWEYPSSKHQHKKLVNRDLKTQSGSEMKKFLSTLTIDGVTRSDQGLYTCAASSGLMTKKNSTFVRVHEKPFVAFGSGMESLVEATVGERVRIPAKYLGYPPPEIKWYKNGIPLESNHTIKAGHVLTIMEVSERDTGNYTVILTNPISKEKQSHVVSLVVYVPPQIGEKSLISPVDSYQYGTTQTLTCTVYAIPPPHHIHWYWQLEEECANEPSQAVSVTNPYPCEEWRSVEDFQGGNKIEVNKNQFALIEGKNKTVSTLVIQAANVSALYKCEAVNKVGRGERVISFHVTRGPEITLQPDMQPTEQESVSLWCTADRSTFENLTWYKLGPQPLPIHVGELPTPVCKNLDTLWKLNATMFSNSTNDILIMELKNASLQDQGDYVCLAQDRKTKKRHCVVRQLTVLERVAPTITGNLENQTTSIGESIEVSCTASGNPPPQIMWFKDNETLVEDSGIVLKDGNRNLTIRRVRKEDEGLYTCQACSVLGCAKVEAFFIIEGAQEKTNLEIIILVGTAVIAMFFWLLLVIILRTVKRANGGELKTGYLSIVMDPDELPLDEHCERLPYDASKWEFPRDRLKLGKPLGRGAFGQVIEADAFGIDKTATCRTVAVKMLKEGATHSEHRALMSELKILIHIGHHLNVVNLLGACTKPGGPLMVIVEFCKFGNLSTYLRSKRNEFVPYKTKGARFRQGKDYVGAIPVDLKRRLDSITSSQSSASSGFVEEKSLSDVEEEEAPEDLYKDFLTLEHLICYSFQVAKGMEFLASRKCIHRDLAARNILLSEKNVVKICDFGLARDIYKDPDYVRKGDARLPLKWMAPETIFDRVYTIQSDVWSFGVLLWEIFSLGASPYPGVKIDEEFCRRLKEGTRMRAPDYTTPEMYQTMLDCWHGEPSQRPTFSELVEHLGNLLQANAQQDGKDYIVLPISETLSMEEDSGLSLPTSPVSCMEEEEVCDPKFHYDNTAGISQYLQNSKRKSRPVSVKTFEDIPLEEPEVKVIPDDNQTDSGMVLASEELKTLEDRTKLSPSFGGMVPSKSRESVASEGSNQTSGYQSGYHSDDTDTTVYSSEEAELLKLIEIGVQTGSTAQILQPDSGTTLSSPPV

Compound	%Pre-G1 (HCT-116 cells)	%G2-M (HCT-116 cells)	%S (HCT-116 cells)	%G0-G1 (HCT-116 cells)	IC50 (VEGFR-2 Protein Kinase)	Bcl-2 expression (Bcl-2 [1])	Bcl-2 expression (Bcl-2 [2])
O=C(CSc1nc2ccccc2o1)Nc1ccc(C(=O)NC2CCCCC2)cc1 [Compound 1]	15.36%	24.41%	33.25%	42.34%	0.27 µM and 0.268 µM	inhibited	inhibited
O=C(CSc1nc2cc(Cl)ccc2o1)Nc1ccc(C(=O)Nc2ccc(Cl)cc2)cc1 [Compound 11]	17.41%	28.44%	26.19%	45.37%	0.36 µM and 0.361 µM	inhibited	inhibited

— article PMC9176662, “Design, synthesis, molecular modeling and biological evaluation of novel Benzoxazole-Benzamide conjugates via a 2-Thioacetamido linker as potential anti-proliferative agents, VEGFR-2 inhibitors and apoptotic inducers” (Journal of Enzyme Inhibition and Medicinal Chemistry, 2022)
